From ChEMBL document CHEMBL6182906, “Discovery, total synthesis, and biological evaluation of tyrcinnamins as antibacterial agents and tyrosinase activators” (Eur J Med Chem, 2025)
≈ marks a conversion by molar mass, not a printed value. Calls of active or inactive are those of the source. No cut-off for these calls is given here.

What was measured:
[1] = system: Bacillus subtilis; assay: Antibacterial activity against Bacillus subtilis ATCC6633 assessed as bacterial growth inhibition incubated for 16 hrs by broth microdilution assay; format: functional
[2] = system: Staphylococcus aureus; assay: Antibacterial activity against Staphylococcus aureus ATCC6538 assessed as bacterial growth inhibition incubated for 16 hrs by broth microdilution assay; format: functional
[3] = system: Escherichia coli; assay: Antibacterial activity against Escherichia coli ATCC8739 assessed as bacterial growth inhibition up to 100 uM incubated for 16 hrs by broth microdilution assay; format: functional, organism-based
[4] = system: Pseudomonas aeruginosa; assay: Antibacterial activity against Pseudomonas aeruginosa ATCC27853 assessed as bacterial growth inhibition up to 100 uM incubated for 16 hrs by broth microdilution assay; format: functional, organism-based
[5] = biological target: T1, Mushroom tyrosinase (Agaricus bisporus) (UniProt O42713+Q00024+C7FF04+C7FF05); assay: Inhibition of mushroom tyrosinase using L-DOPA as substrate up to 1 mM preincubated for 10 mins followed by substrate addition measured after 20 mins by absorbance based assay; format: protein assay; conditions: time 30.0 min
[6] = system: L02; assay: Induction of apoptosis in human LO2 cells assessed as necrotic cells at 12.5 uM incubated for 48 hrs by Annexin V-FITC/PI staining based flow cytometry (reference value: 1.12 %); format: functional
[7] = system: HaCaT; assay: Cytotoxicity against human HaCaT cells at 100 uM incubated for 72 hrs by CCK8 assay; format: toxicity, cell-based
[8] = Hemolytic activity against chicken erythrocytes up to 100 uM incubated for 1 hr by absorbance based assay; format: toxicity, cell-based, Gallus gallus, Erythrocyte; conditions: read-out: Activity
[9] = system: L02; assay: Induction of apoptosis in human LO2 cells assessed as late apoptotic cells at 50 uM incubated for 48 hrs by Annexin V-FITC/PI staining based flow cytometry (reference value: 0.044 %); format: functional
[10] = biological target: T1, Mushroom tyrosinase (Agaricus bisporus); assay: Competitive binding affinity to mushroom tyrosinase at 0.5 to 1 mM in presence of 0.25 mM L-DOPA; format: protein assay; conditions: filed as activator, dose 0.5-1 mM
[11] = system: L02; assay: Induction of apoptosis in human LO2 cells assessed as viable cells at 12.5 uM incubated for 48 hrs by Annexin V-FITC/PI staining based flow cytometry (reference value: 98.0 %); format: functional; conditions: read-out: Activity
[12] = system: HCT-116; assay: Cytotoxicity against human HCT-116 cells at 100 uM incubated for 72 hrs by CCK8 assay; format: toxicity, cell-based; conditions: hct-116, 72 h
[13] = system: L02; assay: Induction of apoptosis in human LO2 cells assessed as early apoptotic cells at 50 uM incubated for 48 hrs by Annexin V-FITC/PI staining based flow cytometry (reference value: 0.85 %); format: functional
[14] = system: Enterococcus faecium; assay: Antibacterial activity against Enterococcus faecium assessed as bacterial growth inhibition incubated for 16 hrs by broth microdilution assay; format: functional
[15] = system: Staphylococcus aureus; assay: Antibacterial activity against methicillin-resistant Staphylococcus aureus assessed as bacterial growth inhibition incubated for 16 hrs by broth microdilution assay; format: functional
[16] = system: Enterococcus faecalis; assay: Antibacterial activity against Enterococcus faecalis assessed as bacterial growth inhibition incubated for 16 hrs by broth microdilution assay; format: functional
[17] = system: Staphylococcus epidermidis; assay: Antibacterial activity against Staphylococcus epidermidis assessed as bacterial growth inhibition incubated for 16 hrs by broth microdilution assay; format: functional
[18] = system: L02; assay: Induction of apoptosis in human LO2 cells assessed as late apoptotic cells at 100 uM incubated for 48 hrs by Annexin V-FITC/PI staining based flow cytometry (reference value: 0.044 %); format: functional
[19] = system: L02; assay: Induction of apoptosis in human LO2 cells assessed as necrotic cells at 100 uM incubated for 48 hrs by Annexin V-FITC/PI staining based flow cytometry (reference value: 1.12 %); format: functional
[20] = system: L02; assay: Induction of apoptosis in human LO2 cells assessed as late apoptotic cells at 12.5 uM incubated for 48 hrs by Annexin V-FITC/PI staining based flow cytometry (reference value: 0.044 %); format: functional
[21] = system: L02; assay: Induction of apoptosis in human LO2 cells assessed as early apoptotic cells at 100 uM incubated for 48 hrs by Annexin V-FITC/PI staining based flow cytometry (reference value: 0.85 %); format: functional
[22] = biological target: T1, Mushroom tyrosinase (Agaricus bisporus); assay: Competitive binding affinity to mushroom tyrosinase at 0.1 mM in presence of 0.25 mM L-DOPA; format: protein assay
[23] = system: L02; assay: Induction of apoptosis in human LO2 cells assessed as early apoptotic cells at 12.5 uM incubated for 48 hrs by Annexin V-FITC/PI staining based flow cytometry (reference value: 0.85 %); format: functional
[24] = system: Staphylococcus aureus; assay: Antibacterial activity against Staphylococcus aureus ATCC29213 assessed as bacterial growth inhibition incubated for 16 hrs by broth microdilution assay; format: functional
[25] = system: L02; assay: Induction of apoptosis in human LO2 cells assessed as necrotic cells at 50 uM incubated for 48 hrs by Annexin V-FITC/PI staining based flow cytometry (reference value: 1.12 %); format: functional
[26] = biological target: T1, Mushroom tyrosinase (Agaricus bisporus); assay: Activation of mushroom tyrosinase using L-DOPA as substrate at 1 mM preincubated for 10 mins followed by substrate addition measured after 20 mins by absorbance based assay; format: protein assay; conditions: filed as activator, time 30.0 min
[27] = system: L02; assay: Cytotoxicity against human LO2 cells at 100 uM incubated for 72 hrs by CCK8 assay; format: toxicity, cell-based; conditions: l02, 72 h
[28] = system: L02; assay: Induction of apoptosis in human LO2 cells assessed as viable cells at 50 uM incubated for 48 hrs by Annexin V-FITC/PI staining based flow cytometry (reference value: 98.0 %); format: functional; conditions: read-out: Activity
[29] = system: L02; assay: Induction of apoptosis in human LO2 cells assessed as viable cells at 100 uM incubated for 48 hrs by Annexin V-FITC/PI staining based flow cytometry (reference value: 98.0 %); format: functional; conditions: read-out: Activity
[30] = Hemolytic activity against chicken erythrocytes at 50 uM incubated for 1 hr by absorbance based assay; format: toxicity, cell-based, Gallus gallus, Erythrocyte; conditions: read-out: Activity
[31] = system: Staphylococcus aureus; assay: Antibacterial activity against Staphylococcus aureus ATCC6538 assessed as bacterial growth inhibition at 100 uM incubated for 12 hrs by spot assay; format: functional, organism-based
[32] = system: Staphylococcus aureus; assay: Antibacterial activity against Staphylococcus aureus ATCC6538 assessed as bacterial growth inhibition at 100 uM incubated for 12 hrs by resazurin assay; format: functional, organism-based

CC1(C)S[C@@H]2[C@H](NC(=O)Cc3ccccc3)C(=O)N2[C@H]1C(=O)O [PENICILLIN G]
MIC [1]: 10 µM (≈ 3.34 µg/mL) | MIC [2]: 0.05 µM (≈ 0.0167 µg/mL)

CCC/C=C\c1ccccc1/C=C/C(=O)O
MIC [1]: > 100 µM | inhibition [3]: inactive | MIC [2]: > 100 µM | inhibition [4]: inactive

COC(=O)[C@H](Cc1ccc(O)cc1)NC(=O)/C=C/c1ccccc1OC
MIC [1]: 100 µM (≈ 35.5 µg/mL) | inhibition [3]: inactive | inhibition [5]: Active | MIC [2]: 100 µM (≈ 35.5 µg/mL) | inhibition [4]: inactive

CCC/C=C\c1ccccc1/C=C/C(=O)N[C@@H](Cc1ccc(O)cc1)C(=O)OC
MIC [1]: 12.5 µM (≈ 4.92 µg/mL) | Activity [6]: 1.23% | inhibition [3]: inactive | Activity [7]: Non-toxic | inhibition [5]: inactive | hemolysis at 1 h, up to 100 µM [8]: < 5% | Activity [9]: 0.024% | MIC [2]: 12.5 µM (≈ 4.92 µg/mL) | Activity [10]: Active | viability at 12.5 µM [11]: 98.5% | Activity [12]: Non-toxic | Activity [13]: 0.74% | MIC [14]: 20 µM (≈ 7.87 µg/mL) | MIC [15]: 20 µM (≈ 7.87 µg/mL) | MIC [16]: 20 µM (≈ 7.87 µg/mL) | MIC [17]: > 40 µM | Activity [18]: 0.034% | Activity [19]: 1.34% | Activity [20]: 0.041% | Activity [21]: 0.94% | Activity [22]: inactive | Activity [23]: 0.2% | MIC [24]: 20 µM (≈ 7.87 µg/mL) | Activity [25]: 1.33% | Emax [26]: > 300% | Activity [27]: Non-toxic | inhibition [4]: inactive | viability at 50 µM [28]: 97.9% | viability at 100 µM [29]: 97.7%

COC(=O)[C@H](Cc1ccc(O)cc1)NC(=O)/C=C/c1ccccc1
MIC [1]: > 100 µM | inhibition [3]: inactive | inhibition [5]: inactive | MIC [2]: > 100 µM | inhibition [4]: inactive

COC(=O)[C@H](Cc1ccc(O)cc1)NC(=O)/C=C/c1ccccc1C(F)(F)F
MIC [1]: > 100 µM | inhibition [3]: inactive | inhibition [5]: inactive | MIC [2]: 100 µM (≈ 39.3 µg/mL) | inhibition [4]: inactive

CCC/C=C\c1ccccc1/C=C/C(=O)N[C@H](Cc1ccc(O)cc1)C(=O)OC
MIC [1]: 12.5 µM (≈ 4.92 µg/mL) | inhibition [3]: inactive | Activity [7]: Toxic | inhibition [5]: inactive | MIC [2]: 12.5 µM (≈ 4.92 µg/mL) | Activity [12]: Toxic | hemolysis at 1 h, 50 µM [30]: > 5% | Emax [26]: > 300% | Activity [27]: Toxic | inhibition [4]: inactive

CCC/C=C\c1ccccc1/C=C/C(=O)N[C@@H](Cc1ccc(O)cc1)C(=O)O
MIC [1]: > 100 µM | inhibition [3]: inactive | inhibition [5]: inactive | MIC [2]: > 100 µM | inhibition [31]: inactive | inhibition [4]: inactive | inhibition [32]: inactive

CCC/C=C\c1ccccc1/C=C/C(=O)N[C@@H](Cc1c[nH]c2ccccc12)C(=O)OC
MIC [1]: > 100 µM | inhibition [3]: inactive | MIC [2]: > 100 µM | inhibition [4]: inactive

COC(=O)[C@H](Cc1ccc(O)cc1)NC(=O)/C=C/c1ccccc1C
MIC [1]: 100 µM (≈ 33.9 µg/mL) | inhibition [3]: inactive | inhibition [5]: inactive | MIC [2]: > 100 µM | Emax [26]: > 300% | inhibition [4]: inactive

CCC/C=C\c1ccccc1/C=C/C(=O)N[C@@H](C)C(=O)OC
MIC [1]: 100 µM (≈ 30.1 µg/mL) | inhibition [3]: inactive | MIC [2]: > 100 µM | inhibition [4]: inactive

CCC/C=C\c1ccccc1/C=C/C(=O)N[C@H](Cc1ccc(O)cc1)C(=O)O
MIC [1]: > 100 µM | inhibition [3]: inactive | inhibition [5]: inactive | MIC [2]: > 100 µM | inhibition [31]: inactive | inhibition [4]: inactive | inhibition [32]: inactive

CN[C@H](CC(C)C)C(=O)N[C@H]1C(=O)N[C@@H](CC(N)=O)C(=O)N[C@H]2C(=O)N[C@H]3C(=O)N[C@H](C(=O)N[C@H](C(=O)O)c4cc(O)cc(O)c4-c4cc3ccc4O)[C@H](O)c3ccc(c(Cl)c3)Oc3cc2cc(c3O[C@@H]2O[C@H](CO)[C@@H](O)[C@H](O)[C@H]2O[C@H]2C[C@](C)(N)[C@H](O)[C@H](C)O2)Oc2ccc(cc2Cl)[C@H]1O [VANCOMYCIN]
MIC [14]: 2.8 µM (≈ 4.06 µg/mL) | MIC [15]: 2.8 µM (≈ 4.06 µg/mL) | MIC [16]: 2.8 µM (≈ 4.06 µg/mL) | MIC [24]: 1.4 µM (≈ 2.03 µg/mL)

COC(=O)[C@H](Cc1ccc(O)cc1)NC(=O)/C=C/c1ccccc1F
MIC [1]: 100 µM (≈ 34.3 µg/mL) | inhibition [3]: inactive | inhibition [5]: inactive | MIC [2]: > 100 µM | inhibition [4]: inactive

COC(=O)[C@H](Cc1ccc(O)cc1)NC(=O)/C=C/c1ccccc1Br
MIC [1]: 100 µM (≈ 40.4 µg/mL) | inhibition [3]: inactive | inhibition [5]: inactive | MIC [2]: 100 µM (≈ 40.4 µg/mL) | inhibition [4]: inactive

CCC/C=C\c1ccccc1/C=C/C(=O)N[C@@H](Cc1ccccc1)C(=O)OC
MIC [1]: > 100 µM | inhibition [3]: inactive | MIC [2]: > 100 µM | inhibition [4]: inactive
